Source: US20140357713A1, “ANTIMICROBIAL COMPOUNDS AND METHODS OF USE” (NexMed Holdings, Inc., priority 2012, published 2014)
Values after ≈ are worked out from the molar mass of the structure shown. Read-outs that look alike come from different tables or passages of the source.

How the values were obtained:
Experiment in all cases: Minimum inhibitory concentration (MIC) assay, Example 33
[1] = test system: Staphulococcus aureus (ATCC 29213); type: cell-based, Staphylococcus aureus; conditions: Staphylococcus aureus, read-out: MIC S. aureus
Description: (§1) Thirty compounds were tested for antimicrobial activity using standard procedures and standard strains for both the minimum inhibitory concentration (MIC) assay and a time kill study. Both the MIC assay and the time kill study were performed according to Clinical and Laboratory Standards Institute (CLSI) guidelines. Three bacteria strains, Escherichia coli (ATCC 25922), Pseudomonas aeruginosa (ATCC 27853), Staphulococcus aureus (ATCC 29213), and two fungus strains, Candida albicans (ATCC 90029) and Aspergillus niger (CMCC 98003), were used in the experiments.
(§2) Preparation of cultures. Before the experiment, two days for the bacteria strains and five days for fungus strains, an aliquot was removed from the cultures frozen at −80° C. Medium was added to the surface of an appropriate agar plate and streaked with the aliquot. The plate was incubated for 20 to 24 hrs at 35±2° C. for bacteria or for 5 days at 26-30° C. in incubator for fungus. From the resulting growth on each plate, one isolated colony of similar morphology was selected and re-streaked onto a fresh agar plate using a sterile disposable loop. The plate was incubated 20 to 24 hrs at 35±2° C. or for 5 days at 26-30° C. in an incubator.
(§3) Preparation of Assay Plates with Medium and Drugs. On the day of the assay, CAMHB medium or RPMI 1640 medium was removed from 4′C storage and allowed to reach room temperature. Ninety microliters (μL) of room temperature CAMHB or RPMI 1640 (supplemented with the appropriate concentration of DMSO, if required) were added to rows B-G of each 96-well microtiter plate. Using a pipette, duplicate 180 μL aliquots of each drug stock solution were added to column 1 (e.g. A1 and B1 or C1 and D1 or E1 and F1 or G1 and H1). Using a multichannel pipette or the Provision 2000 liquid handler, serial 2-fold dilutions (90 μL) were performed in each row across the plate to row G. Eighty μL of compounds dilutions were transferred to a 96-deep well plate. Medium, 1,520 μL of CAMHB or RPMI 1640, was added to each well. The contents of the wells were mixed thoroughly. A 50 μL aliquot of each of the resulting mixtures was transferred to a 96-well assay plate.
(§4) For bacteria, a sterile inoculating loop was used to transfer growth from an agar plate culture into about 5 mL of test medium. Using a turbidity meter, this inoculum was adjusted so that its density (600 nm) was equivalent to a 0.5 McFarland barium sulfate standard (0.08-0.13). The resulting suspension was diluted 1:100 into medium to obtain two times test inoculums.
(§5) For Aspergillus niger, sporulating colonies were covered with RPMI 1640, and a suspension was prepared by gently probing the colonies with the tip of a transfer pipette. The suspension was transferred to a sterile tube and mixed with a vortex mixer for 15 seconds. The densities at 530 nm were adjusted to 0.09-0.13 for each sample. The resulting suspension was diluted 1:50 with the medium to obtain two times test inoculums. Fifty μL/well of this inoculum suspension was added to wells of drug-containing plates (1:2 dilution). Plates were incubated at 35° C. for the appropriate times. The MIC was read and recorded according to CLSI guidelines.
(§6) The MIC values for thirty compounds against Escherichia coli, Pseudomonas aeruginosa, Staphulococcus aureus, Candida albicans, and Aspergillus niger were recorded and are presented in Table 3 and Table 4.

[2] = test system: Escherichia coli (ATCC 25922); type: cell-based; conditions: Escherichia coli, read-out: MIC E. coli
Description: as §1, §2, §3, §4, §5, §6

[3] = test system: Pseudomonas aeruginosa (ATCC 27853); type: cell-based; conditions: Pseudomonas aeruginosa, read-out: MIC P. aeruginosa
Description: as §1, §2, §3, §4, §5, §6

[4] = test system: Candida albicans (ATCC 90029); type: cell-based
Description: as §1, §2, §3
For Candida albicans, a sterile inoculating loop was used to transfer growth from an agar plate culture into a tube with RPMI1640 medium. This inoculum was adjusted so that its density at 530 nm was in the ranges from 0.08 to 0.13. The resulting suspension was diluted 1:50 and further diluted 1:20 with the medium to obtain two times test inoculums.
as §5, §6

[5] = test system: Aspergillus niger (CMCC 98003); type: cell-based
Description: as §1, §2, §3, §5, §6

| Structure (SMILES) | MIC ([1]; ATCC29213, n = 1) | MIC ([1]; ATCC29213, n = 2) | MIC ([2]; ATCC25922, n = 1) | MIC ([2]; ATCC25922, n = 2) | MIC ([3]; ATCC27853, n = 1) | MIC ([3]; ATCC27853, n = 2) | MIC Candida albicans ([4]; n = 1) | MIC Candida albicans ([4]; n = 2) | MIC Aspergillus niger ([5]; n = 1) | MIC Aspergillus niger ([5]; n = 2) |
| --- | --- | --- | --- | --- | --- | --- | --- | --- | --- | --- |
| NCC[C@H](O)C(=O)N[C@@H]1C[C@H](N)[C@@H](O[C@H]2O[C@H](CN)[C@@H](O)[C@H](O)[C@H]2O)[C@H](O)[C@H]1O[C@H]1O[C@H](CO)[C@@H](O)[C@H](N)[C@H]1O [Amikacin, reference compound] | 2 µg/mL (≈ 3.42 µM) | 2 µg/mL (≈ 3.42 µM) | 2 µg/mL (≈ 3.42 µM) | 2 µg/mL (≈ 3.42 µM) | 2 µg/mL (≈ 3.42 µM) | 2 µg/mL (≈ 3.42 µM) |  |  |  |  |
| C[C@@H]1[C@H](O)[C@@H](C)/C=C/C=C/C=C/C=C/C=C/C=C/C=C/[C@H](O[C@@H]2O[C@H](C)[C@@H](O)[C@H](N)[C@@H]2O)C[C@@H]2O[C@](O)(C[C@@H](O)C[C@@H](O)[C@H](O)CC[C@@H](O)C[C@@H](O)CC(=O)O[C@H]1C)C[C@H](O)[C@H]2C(=O)O [Amphotericin B, reference compound] |  |  |  |  |  |  | 0.5 µg/mL (≈ 0.541 µM) | 0.5 µg/mL (≈ 0.541 µM) | 2000 µg/mL (≈ 2160 µM) | 2000 µg/mL (≈ 2160 µM) |
| CC(C)(O/N=C(\C(=O)N[C@@H]1C(=O)N2C(C(=O)[O-])=C(C[n+]3ccccc3)CS[C@H]12)c1csc(N)n1)C(=O)O [Ceftazidime, reference compound] | 8 µg/mL (≈ 14.6 µM) | 16 µg/mL (≈ 29.3 µM) | 0.5 µg/mL (≈ 0.915 µM) | 0.5 µg/mL (≈ 0.915 µM) | 2 µg/mL (≈ 3.66 µM) | 2 µg/mL (≈ 3.66 µM) |  |  |  |  |
